Measured values reported in patent US11571567B2, “Iontophoresis device for drug delivery and method for manufacturing the same” (BIOSENSOR LABORATORIES INC., priority 2016, dated 2023).

Experiment: Drug delivery effect of the RED iontophoresis device through excised hairless mouse back skin (HPLC/LC-MS of stratum corneum and dermis)
Type: in vitro ADME
Details: after 3 hours, FIG. 10
Description: FIG. 10 is a graph illustrating drug delivery effects of the iontophoresis device according to an embodiment. In order to confirm the drug delivery effects, the RED battery unit was prepared in the same manner as in preparation of the RED battery unit prepared for the measurement in FIG. 6, except that the number of chamber layers was 15, and a size of the chamber was 1 cm×0.8 cm. Also, 3M clectrically conductible adhesive tape (ECAT), which is conductive fabric, was used as an intermediate unit. The first material containing unit was prepared as follows. 2.5 wt % of 2-phospho I-ascorbic acid trisodium (VCP) (available from Sigma Aldrich, US) and 3 w/v % of Carbopol 940 were dissolved in 1×PBS having pH of 7.4. By titrating with 1 M HCl and 1 M NaOH, a pH of the first material containing unit including vitamin C (VCP) was adjusted to 7. This is a stable pH at which VCP exists in the ionized form. As a thickening agent used in preparation of a dosage form, Carbopol was prepared as a sol while controlling a pH using pH indicator paper (available from GE healthcare, UK). The resultant was sufficiently stirred by using a glass rod so that a material in the first material containing unit was homogenous after each titration process. […]

vitamin C (VCP) delivered to the skin, i.e., dermis (experimental group (RED single): activated iontophoresis device, 15 chamber layers, 2.5 wt % VCP in Carbopol sol pH 7, excised haireless mouse (Sk-hr 1) back skin): about 40%
SMILES: O=C1O[C@H]([C@@H](O)CO)C(O)=C1OP(=O)(O)O.[Na+].[Na+].[Na+] [VCP, 2-phospho I-ascorbic acid trisodium]
drug remaining amount in the stratum corneum (control group (Ctrl): device with the same drug concentration, not activated by water, excised haireless mouse back skin): more drug remaining amount was found in the stratum corneum
